| SMILES | logP |
| --- | --- |
| O=C1COCCOCC(=O)N(Cc2ccccc2)CCN(Cc2ccccc2)C(=O)COCCOCC(=O)N(Cc2ccccc2)CCN1Cc1ccccc1 | 3.8 |
| O=C1COCC(=O)N(Cc2ccccc2)CCN(Cc2ccccc2)C(=O)COCC(=O)NCCN1 | 1.9 |
| O=C1COCC(=O)N(Cc2ccccc2)CCOCCN(Cc2ccccc2)C(=O)COCC(=O)N(Cc2ccccc2)CCOCCN1Cc1ccccc1 | 3.8 |
| O=C1CCCCCCC(=O)N(Cc2ccccc2)CCN(Cc2ccccc2)C(=O)CCCCCCC(=O)N(Cc2ccccc2)CCN1Cc1ccccc1 | 5.1 |
| CCOC(=O)CCCCCCCCCCCN(C)C(=O)CO[C@@H](C)[C@H](C)OCC(=O)N(C)CCCCCCCCCCCC(=O)OCC | 6.2 |
| O=C1COCC(=O)N(Cc2ccccc2)CCN(c2ccccc2)CCN(Cc2ccccc2)C(=O)COCC(=O)NCCN1 | 2.2 |
| CCN(Cc1ccccc1)C(=O)COCC(=O)N(CC)Cc1ccccc1 | 2.5 |
| O=C(COCC(=O)N(C1CCCCC1)C1CCCCC1)N(C1CCCCC1)C1CCCCC1 | 6.7 |

The remaining lines, values ahead:

| logP | SMILES |
| --- | --- |
| 5.2 | O=C1COCC(=O)N(Cc2ccccc2)CCN(c2ccc(F)cc2)CCN(Cc2ccccc2)C(=O)COCC(=O)N(Cc2ccccc2)CCN1Cc1ccccc1 |
| 3.8 | O=C1COCC(=O)N(Cc2ccccc2)CCN(Cc2ccccc2)C(=O)COCC(=O)N(Cc2ccccc2)CCOCCN1Cc1ccccc1 |
| 3.8 | O=C1COCC(=O)N(Cc2ccccc2)CCN(Cc2ccccc2)C(=O)COCC(=O)N(Cc2ccccc2)CCN1Cc1ccccc1 |
| 5.2 | O=C1COCC(=O)N(Cc2ccccc2)CCN(c2ccccc2)CCN(Cc2ccccc2)C(=O)COCC(=O)N(Cc2ccccc2)CCN1Cc1ccccc1 |

— the SangsterLogP compilation
